Data reported in patent publication US8859235B2, “Methods in cell cultures, and related inventions, employing certain additives” (priority 2009, dated 2014).

Columns and labels:
[1] = test system: E. coli JM109; assay: Growth and GFPuv expression in E. coli JM109, shake flask cultivation in mineral medium; assay type: cell-based, Escherichia coli; conditions: Experiment 2, additive 5 mM, 20 h, mean of two
Procedure: Precultures are prepared in 250 mL baffled shake flasks containing 25 mL sterile mineral medium [macronutrients in g/L: Glycerol (25), (NH4)2-citrate (1.0), Na2HPO4 2H2O (9.0), KH2PO4 (1.82), NH4Cl (1.52), MgSO4 (0.12), (NH4)2SO4 (0.6); Ampicillin ([…]); micronutrients in mg/L: Na2-EDTA (8.4), thiamine (4.5), Fe(III) citrate (12.5), Na2MoO4 2×H2O (2.5), H3BO3 (3), CoCl2 6×H2O (2.5), CuSO4 5×H2O (0.45) MnCl24×H2O (15), ZnCl2 (8) adjusted to pH 7.0]. Cultures are inoculated with 250 μL of a glycerol stock stored at −80° C. of E. coli JM109 (Promega Inc, Wallisellen, C H; Genotype: endA1, recA1, gyrA96, thi, hsdR17 (rk^−, mk^+), re/A1, supE44, Δ(lac-proAB), [F″ traD36, proAB, laql^qZΔM15]) harboring the plasmid pBAD-GFPuv (Biorad Inc., Reinach, C H; Genbank U62637.1, containing the GFPuv gene under control of the ara promoter; GFP=Green Fluorescent Protein). Precultures are incubated at 37° C. for 10-12 h.
Experimental cultures are performed in a volume of 25 mL of the above described medium in 250 mL baffled shake flasks. Stabilizers according to the invention are added to a final concentration of 5 mM as indicated from sterile stock solutions. Cultures are started by inoculating with the preculture to an optical density at 600 nm (OD600) of 0.25. Growth of the culture is monitored by reading optical density at 600 nm. Cultures are induced by adding L-arabinose to a final concentration of 0.2% (w/v) when the OD600 reaches 0.5. Samples of 1 mL are taken 6 and 20 h after induction for OD600 reading and GFP quantification. For GFP quantification 1 mL of the culture is harvested after 2-4 h and after 20 h after induction. Cells are collected by centrifugation at 16 000 g and the cell pellet is stored at −20° C. for further analysis.
(§1) The measurement of GFP expression by whole cell fluorescence measurements follows the procedure of Scholz et al. (Eur. J. Biochem., 2000,267, 1565-1570). Frozen cell pellets are thawed, resuspended in 1 mL PBS [NaCl (8 g/L), KCl (0.2), of Na2HPO4 (1.44), KH2PO4 (0.24), adjusted to pH 7.4] and subsequently diluted to an optical density of 0.1. GFP fluorescence of whole cells is measured in a Eclipse Fluorometer (Varian) with an excitation wavelength of 400 nm and an emission wavelength of 512 nm. Specific relative fluorescence [RFU/OD600] is calculated by dividing the relative fluorescence emmision units by the optical density of the suspension at 600 nm.

[2] = test system: E. coli JM109; assay: Growth and GFP expression in high cell density fedbatch cultivation of E. coli JM109 in mineral medium; assay type: cell-based, Escherichia coli; conditions: for Optical density Value / GFP expression (RFU/OD600) Value: additive 5 mM
Procedure: as §1
A first preculture of E. coli JM109 harboring the plasmid pBAD-GFPuv is initiated from glycerol stocks stored at −80° C. in 3 mL of LB medium containing 0.01% (v/v) Antifoam A (Fluka). After growth for 10-12 h it is used to seed 2×100 mL of mineral medium (as described in Example 1) containing 0.01% Antifoam A (silicone fluid containing a suspension of finely powdered silica to enhance its defoaming efficiency; Dow Corning Corporation, Midland, Mich., USA), in 1 L baffled shake flasks. After 10-12 h this culture is centrifuged resuspended in 50 mL mineral medium and is used to inoculate the main culture.
Cultivation is performed in BioFlow110 bioreactors (Total volume 2.2 L; New Brunswick Scientific, Nürtingen, Germany) filled with 1 L of mineral medium plus 0.01% (v/v) Antifoam A for the batch phase. Reactors are equipped with pH, pO2 and foam probes, mass flow controllers to control gas flow and ratio of air and pure oxygen and pumps for automated dosage of base (14% [v/v] aqueous NH3), antifoam (25% [v/v] Antifoam A) and nutrient feed solution. The agitation is set to 500 rpm and air is supplied at a gas flow rate of 2 L/min. The fedbatch culture is incoculated to an OD600 of 0.25-0.5 and allowed to grow unlimited with a specific growth rate of ˜0.5 h^−1. Growth is monitored by measuring OD600. When the disolved oxygen concentration decreases to 30%, automated adjustment of the air:oxygen ratio in the gas mix is started to control dO2 to 30% using a PID loop. When the gas mix consisted of 100% oxygen a further increase in oxygen transfer is achieved through increasing the agitation rate up to a maximum level of 1200 rpm. When glycerol in the batch medium is completely consumed, as indicated by a distinct drop of pure oxygen in the gas mix, feeding solutions (first containing 70 g/L glycerol and later as cell density increased 200 g/L glycerol in mineral medium) are pumped into the reactor by a predefined exponential fed scheme. The feeding rate is calculated to allow the cells to grow at a growth rate of approximately 0.15 h^−1. During the feeding phase dO2 is also kept at 30%. 3-6 h after starting the feeding protein expression is induced by the addition of 0.2 (w/v) L-arabinose. Samples are taken every hour for OD600 reading and to obtain cell pellets which are stored at −20° C. for further analysis. Analysis of in vivo GFP fluorescence is performed by the method described in Example 1.

[3] = Experiment 1, process time 26.75 h, relative to control = 1

How did the “Growth (Final OD600)” value ([1]; control 11.0) turn out when `CC1(C)CC(O)CC(C)(C)N1[O]` [4-Hydroxy-2,2,6,6-tetramethylpiperidin-1-oxyl] was run?
Its value is 9.5 OD600.

What about the “GFP expression (Relative fluorescence unit*OD600^−1)” value ([1]; control 1423) of the same compound?
Its value is 7276 Relative fluorescence unit*OD600^−1.

What about the “Optical density Value” ([2]; Experiment 1, process time 26.75 h, control 9.86) of the same compound?
Its value is 11.86.

And the “GFP expression (RFU/OD600) Value” ([2]; Experiment 1, process time 26.75 h, control 211)?
The value was 535 RFU/OD600.

And the “GFP expression Factor” value [2, 3]?
Its value is 2.53.

And the “Optical density Factor” value [2, 3]?
Its value is 1.20.

What about the “GFP expression (RFU/OD600) Value” ([2]; Experiment 2, process time 18 h, control 0) of the same compound?
Its value is 190 RFU/OD600.

And the “Optical density Value” ([2]; Experiment 2, process time 18 h, control 6.67)?
Its value is 11.42.

What about the “Optical density Factor” value ([2]; Experiment 2, process time 18 h, relative to control = 1) of the same compound?
Its value is 1.7.
